Species: Rattus norvegicus
Assay: Open TG-GATES - Regimen: Single
Assay type: toxicity, organism-based, Sprague-Dawley
Parameters: regimen Single, gender Male, age 6 weeks
Conditions: in vivo, ip, 1000 mg/kg, route intraperitoneal injection, dose level High; for APTT / Bas / Eos / Fbg / Hb / Ht / Lym / MCH / MCHC / MCV / Mono / Neu / PT / Plat / RBC / Ret / WBC: tissue Blood; for KIDNEY_L / KIDNEY_R / KIDNEY_TOTAL: tissue Kidney; for LIVER: tissue Liver; for A/G / ALP / ALT / AST / BUN / CRE / Ca / Cl / DBIL / GLC / IP / K / LDH / Na / PL / RALB / TBIL / TC / TG / TP / gamma-GTP: tissue Plasma

N[C@H]1C(O)O[C@H](CO)[C@@H](O)[C@@H]1O (some centres not stated) [GLUCOSAMINE]
TERMINAL_BW (3 h): 188.7 g
APTT (3 h): 21 s
Bas (3 h): 0.2%
Eos (3 h): 0.8%
Fbg (3 h): 265 mg/dL
Hb (3 h): 12.8 g/dL
Ht (3 h): 39.4%
Lym (3 h): 73.6%
MCH (3 h): 21 pg
MCHC (3 h): 32.4%
MCV (3 h): 64.9 fL
Mono (3 h): 3.4%
Neu (3 h): 21.2%
PT (3 h): 16.7 s
Plat (3 h): 106.7 x10_4/uL
RBC (3 h): 608 x10_4/ul
Ret (3 h): 9.6%
WBC (3 h): 92.4 x10_2/uL
KIDNEY_L (3 h): 0.8 g
KIDNEY_R (3 h): 0.8 g
KIDNEY_TOTAL (3 h): 1.6 g
LIVER (3 h): 8.9 g
A/G (3 h): 0.9
ALP (3 h): 1493 IU/L
ALT (3 h): 50 IU/L
AST (3 h): 92.6 IU/L
BUN (3 h): 12 mg/dL
CRE (3 h): 0.2 mg/dL
Ca (3 h): 10.6 mg/dL
Cl (3 h): 110 meq/L
DBIL (3 h): 0.012 mg/dL
GLC (3 h): 167.2 mg/dL
IP (3 h): 7.1 mg/dL
K (3 h): 3.9 meq/L
LDH (3 h): 93.4 IU/L
Na (3 h): 143.4 meq/L
PL (3 h): 129.4 mg/dL
RALB (3 h): 2.5 g/dL
TBIL (3 h): 0.064 mg/dL
TC (3 h): 71.4 mg/dL
TG (3 h): 25 mg/dL
TP (3 h): 5.2 g/dL
gamma-GTP (3 h): 1 IU/L
TERMINAL_BW (6 h): 187.1 g
APTT (6 h): 18.1 s
Bas (6 h): 0%
Eos (6 h): 0.2%
Fbg (6 h): 246.6 mg/dL
Hb (6 h): 13.4 g/dL
Ht (6 h): 41.5%
Lym (6 h): 62.8%
MCH (6 h): 21 pg
MCHC (6 h): 32.3%
MCV (6 h): 65.1 fL
Mono (6 h): 1.4%
Neu (6 h): 34.4%
PT (6 h): 18.9 s
Plat (6 h): 102.2 x10_4/uL
RBC (6 h): 637.8 x10_4/ul
Ret (6 h): 9%
WBC (6 h): 60.4 x10_2/uL
KIDNEY_L (6 h): 0.9 g
KIDNEY_R (6 h): 0.8 g
KIDNEY_TOTAL (6 h): 1.7 g
LIVER (6 h): 8.4 g
A/G (6 h): 0.9
ALP (6 h): 1303.2 IU/L
ALT (6 h): 131 IU/L
AST (6 h): 226.6 IU/L
BUN (6 h): 12.2 mg/dL
CRE (6 h): 0.2 mg/dL
Ca (6 h): 10.3 mg/dL
Cl (6 h): 107.8 meq/L
DBIL (6 h): 0.02 mg/dL
GLC (6 h): 159.4 mg/dL
IP (6 h): 8.2 mg/dL
K (6 h): 3.7 meq/L
LDH (6 h): 316.4 IU/L
Na (6 h): 142.8 meq/L
PL (6 h): 125.6 mg/dL
RALB (6 h): 2.3 g/dL
TBIL (6 h): 0.072 mg/dL
TC (6 h): 68.8 mg/dL
TG (6 h): 17.8 mg/dL
TP (6 h): 5 g/dL
gamma-GTP (6 h): 1 IU/L
TERMINAL_BW (9 h): 182.7 g
APTT (9 h): 18.9 s
Bas (9 h): 0%
Eos (9 h): 0.8%
Fbg (9 h): 289.2 mg/dL
Hb (9 h): 13.2 g/dL
Ht (9 h): 40.3%
Lym (9 h): 68%
MCH (9 h): 21.1 pg
MCHC (9 h): 32.7%
MCV (9 h): 64.6 fL
Mono (9 h): 2.2%
Neu (9 h): 28.2%
PT (9 h): 17.4 s
Plat (9 h): 108.7 x10_4/uL
RBC (9 h): 624.8 x10_4/ul
Ret (9 h): 9.7%
WBC (9 h): 63.8 x10_2/uL
KIDNEY_L (9 h): 0.8 g
KIDNEY_R (9 h): 0.8 g
KIDNEY_TOTAL (9 h): 1.6 g
LIVER (9 h): 7.5 g
A/G (9 h): 0.9
ALP (9 h): 1707.4 IU/L
ALT (9 h): 72.2 IU/L
AST (9 h): 136.6 IU/L
BUN (9 h): 9.4 mg/dL
CRE (9 h): 0.2 mg/dL
Ca (9 h): 10.3 mg/dL
Cl (9 h): 108.8 meq/L
DBIL (9 h): 0.016 mg/dL
GLC (9 h): 159.6 mg/dL
IP (9 h): 9.9 mg/dL
K (9 h): 3.9 meq/L
LDH (9 h): 111.4 IU/L
Na (9 h): 143.2 meq/L
PL (9 h): 142.2 mg/dL
RALB (9 h): 2.5 g/dL
TBIL (9 h): 0.07 mg/dL
TC (9 h): 79.2 mg/dL
TG (9 h): 22 mg/dL
TP (9 h): 5.4 g/dL
gamma-GTP (9 h): 1 IU/L
TERMINAL_BW (24 h): 192.2 g
APTT (24 h): 23.1 s
Bas (24 h): 0.4%
Eos (24 h): 1.2%
Fbg (24 h): 165.4 mg/dL
Hb (24 h): 13.8 g/dL
Ht (24 h): 42.5%
Lym (24 h): 63.2%
MCH (24 h): 21 pg
MCHC (24 h): 32.5%
MCV (24 h): 64.6 fL
Mono (24 h): 4.6%
Neu (24 h): 28.4%
PT (24 h): 33.2 s
Plat (24 h): 109 x10_4/uL
RBC (24 h): 658 x10_4/ul
Ret (24 h): 8.6%
WBC (24 h): 78.4 x10_2/uL
KIDNEY_L (24 h): 0.9 g
KIDNEY_R (24 h): 0.9 g
KIDNEY_TOTAL (24 h): 1.8 g
LIVER (24 h): 8.1 g
A/G (24 h): 0.9
ALP (24 h): 2378 IU/L
ALT (24 h): 313.8 IU/L
AST (24 h): 571.6 IU/L
BUN (24 h): 12.6 mg/dL
CRE (24 h): 0.2 mg/dL
Ca (24 h): 10.3 mg/dL
Cl (24 h): 106.2 meq/L
DBIL (24 h): 0.2 mg/dL
GLC (24 h): 147.6 mg/dL
IP (24 h): 9.3 mg/dL
K (24 h): 4.2 meq/L
LDH (24 h): 727.6 IU/L
Na (24 h): 143.2 meq/L
PL (24 h): 99.6 mg/dL
RALB (24 h): 2.3 g/dL
TBIL (24 h): 0.3 mg/dL
TC (24 h): 51.6 mg/dL
TG (24 h): 25.2 mg/dL
TP (24 h): 4.9 g/dL
gamma-GTP (24 h): 1.2 IU/L

— ChEMBL document CHEMBL3885861, “Open TG-GATES”
